In US9133191B2, “Substituted triazine derivatives and use thereof as stimulators of soluble guanylate cyclase” (Bayer Intellectual Property GmbH, priority 2012, dated 2015):

Assays:
[1] = test system: recombinant guanylate cyclase reporter cell line; assay: Effect on a recombinant guanylate cyclase reporter cell line; assay type: cell-based; conditions: read-out: MEC (minimum effective concentration)
Procedure: B-2. Effect on a Recombinant Guanylate Cyclase Reporter Cell Line
The cellular effect of the compounds according to the invention is determined using a recombinant guanylate cyclase reporter cell line, as described in F. Wunder et al., Anal. Biochem. 339, 104-112 (2005).

aorta rings = assay: Vasorelaxant effect in vitro (phenylephrine-contracted rabbit aorta rings); set-up: species or system Rabbits; conditions: Oryctolagus cuniculus, phenylephrine contraction, concentration needed to reduce the control value by 50%
Procedure: B-1. Vasorelaxant Effect In Vitro
Rabbits are stunned by a blow to the neck and exsanguinated. The aorta is removed, freed from adhering tissue and divided into rings of a width of 1.5 mm. The rings are placed individually under an initial tension in 5 ml organ baths with Krebs-Henseleit solution which is at 37° C., is gassed with carbogen and has the following composition (in each case mM): sodium chloride: 119; potassium chloride: 4.8; calcium chloride dihydrate: 1; magnesium sulphate heptahydrate: 1.4; potassium dihydrogenphosphate: 1.2; sodium bicarbonate: 25; glucose: 10. The contractile force is determined with Statham UC2 cells, amplified and digitalized using A/D transducers (DAS-1802 HC, Keithley Instruments Munich), and recorded in parallel on linear recorders. To produce a contraction, phenylephrine is added to the bath cumulatively in increasing concentration. After several control cycles, the substance to be investigated is added in each further run in increasing dosage in each case, and the height of the contraction achieved is compared with the height of the contraction reached in the last preceding run. This is used to calculate the concentration needed to reduce the magnitude of the control value by 50% (IC50 value). The standard administration volume is 5 μl; the DMSO content in the bath solution corresponds to 0.1%.

| IC50 (aorta rings) | Structure (SMILES) | minimal effective concentration [1] |
| --- | --- | --- |
|  | Nc1nc(-c2nn(Cc3ccccc3F)c3ncccc23)nnc1-c1cncc(F)c1 [Example 1, 3-[1-(2-Fluorobenzyl)-1H-pyrazolo[3,4-b]pyridin-3-yl]-6-(5-fluoropyridin-3-yl)-1,2,4-triazine-5-amine] | 0.1 µM |
|  | Cc1ncccc1-c1nnc(-c2nn(Cc3ccccc3F)c3ncccc23)nc1N [Example 2, 3-[1-(2-Fluorobenzyl)-1H-pyrazolo[3,4-b]pyridin-3-yl]-6-(2-methylpyridin-3-yl)-1,2,4-triazine-5-amine] | 0.1 µM |
|  | Cc1noc(C)c1-c1nnc(-c2nn(Cc3ccccc3F)c3ncccc23)nc1N [Example 3, 6-(3,5-Dimethyl-1,2-oxazol-4-yl)-3-[1-(2-fluorobenzyl)-1H-pyrazolo[3,4-b]pyridin-3-yl]-1,2,4-triazine-5-amine] | 0.3 µM |
|  | COc1ccc(-c2nnc(-c3nn(Cc4ccccc4F)c4ncccc34)nc2N)cn1 [Example 4, 3-[1-(2-Fluorobenzyl)-1H-pyrazolo[3,4-b]pyridin-3-yl]-6-(6-methoxypyridin-3-yl)-1,2,4-triazine-5-amine] | 0.03 µM |
|  | Nc1nc(-c2nn(Cc3ccccc3F)c3ncccc23)nnc1-c1ccncc1 [Example 5, 3-[1-(2-Fluorobenzyl)-1H-pyrazolo[3,4-b]pyridin-3-yl]-6-(pyridin-4-yl)-1,2,4-triazine-5-amine] | 0.1 µM |
|  | Cn1cc(-c2nnc(-c3nn(Cc4ccccc4F)c4ncccc34)nc2N)cn1 [Example 6, 3-[1-(2-Fluorobenzyl)-1H-pyrazolo[3,4-b]pyridin-3-yl]-6-(1-methyl-1H-pyrazol-4-yl)-1,2,4-triazine-5-amine] | 0.1 µM |
|  | Nc1nc(-c2nn(Cc3ccccc3F)c3ncccc23)nnc1-c1cccnc1 [Example 7, 3-[1-(2-Fluorobenzyl)-1H-pyrazolo[3,4-b]pyridin-3-yl]-6-(pyridin-3-yl)-1,2,4-triazine-5-amine] | 0.1 µM |
|  | COc1ncccc1-c1nnc(-c2nn(Cc3ccccc3F)c3ncccc23)nc1N [Example 8, 3-[1-(2-Fluorobenzyl)-1H-pyrazolo[3,4-b]pyridin-3-yl]-6-(2-methoxypyridin-3-yl)-1,2,4-triazine-5-amine] | 0.1 µM |
|  | Cc1cc(-c2nnc(-c3nn(Cc4ccccc4F)c4ncccc34)nc2N)ccn1 [Example 9, 3-[1-(2-Fluorobenzyl)-1H-pyrazolo[3,4-b]pyridin-3-yl]-6-(2-methylpyridin-4-yl)-1,2,4-triazine-5-amine] | 0.1 µM |
|  | Nc1nnc(-c2nn(Cc3ccccc3F)c3ncccc23)nc1N [Example 10, 3-[1-(2-Fluorobenzyl)-1H-pyrazolo[3,4-b]pyridin-3-yl]-1,2,4-triazine-5,6-diamine] | 0.1 µM |
| 2960 nM | CS(=O)(=O)Nc1nnc(-c2nn(Cc3ccccc3F)c3ncccc23)nc1N [Example 11, N-{5-Amino-3-[1-(2-fluorobenzyl)-1H-pyrazolo[3,4-b]pyridin-3-yl]-1,2,4-triazin-6-yl}methanesulphonamide] | 1 µM |
| 112 nM | COC(=O)Nc1nnc(-c2nn(Cc3ccccc3F)c3ncccc23)nc1N [Example 12, Methyl {5-amino-3-[1-(2-fluorobenzyl)-1H-pyrazolo[3,4-b]pyridin-3-yl]-1,2,4-triazin-6-yl}carbamate] | 0.3 µM |
| 2630 nM | Oc1nc(-c2nn(Cc3ccccc3F)c3ncccc23)nnc1C(F)(F)F [Example 13, 3-[1-(2-Fluorobenzyl)-1H-pyrazolo[3,4-b]pyridin-3-yl]-6-(trifluoromethyl)-1,2,4-triazin-5-ol] | 3 µM |
| 52 nM | Nc1nc(-c2nn(Cc3ccccc3F)c3ncccc23)nnc1C(F)(F)F [Example 14, 3-[1-(2-Fluorobenzyl)-1H-pyrazolo[3,4-b]pyridin-3-yl]-6-(trifluoromethyl)-1,2,4-triazine-5-amine] | 0.03 µM |
| 1090 nM | Oc1nc(-c2nn(Cc3ccccc3F)c3ncccc23)nnc1C1CCCC1 [Example 15, 6-Cyclopentyl-3-[1-(2-fluorobenzyl)-1H-pyrazolo[3,4-b]pyridin-3-yl]-1,2,4-triazin-5-ol] | 1 µM |
| 25 nM | Nc1nc(-c2nn(Cc3ccccc3F)c3ncccc23)nnc1C1CCCC1 [Example 16, 6-Cyclopentyl-3-[1-(2-fluorobenzyl)-1H-pyrazolo[3,4-b]pyridin-3-yl]-1,2,4-triazine-5-amine] | 0.03 µM |
|  | CCCc1nnc(-c2nn(Cc3ccccc3F)c3ncccc23)nc1O [Example 17, 3-[1-(2-Fluorobenzyl)-1H-pyrazolo[3,4-b]pyridin-3-yl]-6-propyl-1,2,4-triazin-5-ol] | 1 µM |
| 30 nM | CCCc1nnc(-c2nn(Cc3ccccc3F)c3ncccc23)nc1N [Example 18, 3-[1-(2-Fluorobenzyl)-1H-pyrazolo[3,4-b]pyridin-3-yl]-6-propyl-1,2,4-triazine-5-amine] | 0.1 µM |
|  | CCc1nnc(-c2nn(Cc3ccccc3F)c3ncccc23)nc1O [Example 19, 6-Ethyl-3-[1-(2-fluorobenzyl)-1H-pyrazolo[3,4-b]pyridin-3-yl]-1,2,4-triazin-5-ol] | 1 µM |
| 30 nM | CCc1nnc(-c2nn(Cc3ccccc3F)c3ncccc23)nc1N [Example 20, 6-Ethyl-3-[1-(2-fluorobenzyl)-1H-pyrazolo[3,4-b]pyridin-3-yl]-1,2,4-triazine-5-amine] | 0.1 µM |
| 916 nM | CC(C)c1nnc(-c2nn(Cc3ccccc3F)c3ncccc23)nc1O [Example 21, 3-[1-(2-Fluorobenzyl)-1H-pyrazolo[3,4-b]pyridin-3-yl]-6-isopropyl-1,2,4-triazin-5-ol] | 0.3 µM |
| 27 nM | CC(C)c1nnc(-c2nn(Cc3ccccc3F)c3ncccc23)nc1N [Example 22, 3-[1-(2-Fluorobenzyl)-1H-pyrazolo[3,4-b]pyridin-3-yl]-6-isopropyl-1,2,4-triazine-5-amine] | 0.1 µM |
| 23 nM | CC(F)c1nnc(-c2nn(Cc3ccccc3F)c3ncccc23)nc1N (stereo not shown) [Example 23, 3-[1-(2-Fluorobenzyl)-1H-pyrazolo[3,4-b]pyridin-3-yl]-6-(1-fluoroethyl)-1,2,4-triazine-5-amine] | 0.1 µM |
